Common to all, as to format: functional
Assay [1] deals with Mycobacterium avium. Description: Antitubercular activity against Mycobacterium avium infected in C57BL/6J mouse assessed as reduction of CFU counts in spleen at 25 mg/kg, po administered one month post-infection five times weekly for 4 months (reference value: 8.9 +/- 0.3 log10CFU).
Assay [2] deals with Mycobacterium avium. Description: Antitubercular activity against Mycobacterium avium infected in C57BL/6J mouse assessed as reduction of CFU counts in spleen at 200 mg/kg, po administered one month post-infection five times weekly for 2 months (reference value: 9.4 +/- 0.2 log10CFU).
The test system of assay [3] is Mycobacterium tuberculosis. Description: Antimicrobial activity against Mycobacterium tuberculosis.
Assay [4] deals with Mycobacterium avium. Description: Antitubercular activity against Mycobacterium avium infected in C57BL/6J mouse assessed as reduction of CFU counts in spleen at 150 mg/kg, sc administered one month post-infection five times weekly for 3 months (reference value: 7.9 +/- 0.7 log10CFU). To be noted: route subcutaneous.
Assay [5] concerns Mycobacterium avium. Description: Antitubercular activity against Mycobacterium avium infected in C57BL/6J mouse assessed as reduction of CFU counts in spleen at 25 mg/kg, po administered one month post-infection five times weekly for 1 month (reference value: 7.4 +/- 1.7 log10CFU).
Assay [6] concerns Mycobacterium avium. Description: Antitubercular activity against Mycobacterium avium infected in C57BL/6J mouse assessed as reduction of CFU counts in spleen at 25 mg/kg, po administered one day post-infection five times weekly for 1 month (reference value: 8.0 +/- 0.9 log10CFU).
In assay [7] the test system is Mycobacterium avium. Description: Antimicrobial activity against Mycobacterium avium.
For assay [8], the system named is Mycobacterium avium. Description: Antitubercular activity against Mycobacterium avium infected in C57BL/6J mouse assessed as reduction of CFU counts in spleen at 150 mg/kg, sc administered one month post-infection five times weekly for 1 month (reference value: 7.4 +/- 1.7 log10CFU). The conditions noted are these: route subcutaneous.
For assay [9], the system named is Mycobacterium avium. Description: Antitubercular activity against Mycobacterium avium infected in C57BL/6J mouse assessed as reduction of CFU counts in spleen at 150 mg/kg, sc administered one month post-infection five times weekly for 4 months (reference value: 8.9 +/- 0.3 log10CFU). To be noted: route subcutaneous.
Assay [10] deals with Mycobacterium avium. Description: Antitubercular activity against Mycobacterium avium infected in C57BL/6J mouse assessed as reduction of CFU counts in spleen at 200 mg/kg, po administered one month post-infection five times weekly for 3 months (reference value: 7.9 +/- 0.7 log10CFU).
In assay [11] the test system is Mycobacterium avium. Description: Antitubercular activity against Mycobacterium avium infected in C57BL/6J mouse assessed as reduction of CFU counts in spleen at 25 mg/kg, po administered one month post-infection five times weekly for 2 months (reference value: 9.4 +/- 0.2 log10CFU).
The test system of assay [12] is Mycobacterium avium. Description: Antitubercular activity against Mycobacterium avium infected in C57BL/6J mouse assessed as reduction of CFU counts in spleen at 200 mg/kg, po administered one day post-infection five times weekly for 1 month (reference value: 8.0 +/- 0.9 log10CFU).
Assay [13] relates to Mycobacterium avium. Description: Antitubercular activity against Mycobacterium avium infected in C57BL/6J mouse assessed as reduction of CFU counts in spleen at 150 mg/kg, sc administered one month post-infection five times weekly for 2 months (reference value: 9.4 +/- 0.2 log10CFU). To be noted: route subcutaneous.
The test system of assay [14] is Mycobacterium avium. Description: Antitubercular activity against Mycobacterium avium infected in C57BL/6J mouse assessed as reduction of CFU counts in spleen at 200 mg/kg, po administered one month post-infection five times weekly for 1 month (reference value: 7.4 +/- 1.7 log10CFU).
Assay [15] concerns Mycobacterium avium. Description: Antitubercular activity against Mycobacterium avium infected in C57BL/6J mouse assessed as reduction of CFU counts in spleen at 200 mg/kg, po administered one month post-infection five times weekly for 4 months (reference value: 8.9 +/- 0.3 log10CFU).
Assay [16] has as its system Mycobacterium avium. Description: Antitubercular activity against Mycobacterium avium infected in C57BL/6J mouse assessed as reduction of CFU counts in spleen at 25 mg/kg, po administered one month post-infection five times weekly for 3 months (reference value: 7.9 +/- 0.7 log10CFU).

Values after ≈ are worked out from the molar mass of the structure shown. Values joined by “and” are separate entries in the source; they are usually repeats but may differ in a detail not shown here. Equal entries are not always repeated.

The results in this text go back to ChEMBL document CHEMBL1649264, “ATP synthase inhibition of Mycobacterium avium is not bactericidal” (2009).

As for `COc1nc2ccc(Br)cc2cc1[C@@H](c1ccccc1)[C@@](O)(CCN(C)C)c1cccc2ccccc12` [BEDAQUILINE], the log10cfu with Mycobacterium avium [1] is reported as 6.5; in the assay on Mycobacterium avium [2], 7.7; in the assay with Mycobacterium avium [4] it was 6.6; in the assay on Mycobacterium avium [5], 6.5; in the assay on Mycobacterium avium [6], 5.4. For the same molecule, the minimum inhibitory concentration (MIC) (commonly the least concentration at which growth counts as inhibited) was 0.06 µg/mL (≈ 0.108 µM) in assay [3]; 0.007 µg/mL and 0.015 µg/mL against Mycobacterium avium [7].

`NCC[C@H](O)C(=O)N[C@@H]1C[C@H](N)[C@@H](O[C@H]2O[C@H](CN)[C@@H](O)[C@H](O)[C@H]2O)[C@H](O)[C@H]1O[C@H]1O[C@H](CO)[C@@H](O)[C@H](N)[C@H]1O` [AMIKACIN]: the log10cfu in the assay with Mycobacterium avium [8] turned out to be 5.9; in the assay with Mycobacterium avium [9], 3.5; in the assay on Mycobacterium avium [10] it was 7.2; in the assay on Mycobacterium avium [11], 6.7.

Take `CC[C@H]1OC(=O)[C@H](C)[C@@H](O[C@H]2C[C@@](C)(OC)[C@@H](O)[C@H](C)O2)[C@H](C)[C@@H](O[C@@H]2O[C@H](C)C[C@H](N(C)C)[C@H]2O)[C@](C)(OC)C[C@@H](C)C(=O)[C@H](C)[C@@H](O)[C@]1(C)O` [CLARITHROMYCIN]: the log10cfu in the assay with Mycobacterium avium [12] is 6; with Mycobacterium avium [13] it was 5; in the assay with Mycobacterium avium [14] it was 6.6; with Mycobacterium avium [15] it was 7.2; in the assay with Mycobacterium avium [16], 6.2.
